According to patent US4594345A, “Methylflavone-8-carboxylates” (Nippon Shinyaku Co. Ltd., priority 1982, dated 1986):

Assays:
male mice = experiment: Acute toxicity, oral, observed for two weeks; type: in vivo; conditions: oral 4000 mg/kg, dead/total
Procedure: Acute toxicity is observed for two weeks by oral adminsitration of 4000 mg/kg of the test compounds to male mice. One group consists of four mice. Numbers of dead mice are shown in numerators.

SRS-A = experiment: Anti-SRS-A action (SRS-A induced shrinkage of guinea pig ileus); parameters: species or system guinea pig (Hartley strain male); conditions: treated five minutes before SRS-A (20 units), 5 min; for SRS-A Inhibition Ratio % 10^-6 M: 1 µM; for SRS-A Inhibition Ratio % 10^-7 M: 0.1 µM
Procedure: (§1) The effect of the compounds (I) of the present invention in the treatment of asthma and allergic diseases were evaluated by a passive cutaneous anaphylaxis assay (PCA) in rats and by measuring anti-SRS-A action using ileus of guinea pigs.
Anti-SRS-A action (An anti-action against slow reacting substance of anaphylaxie)
Hartley strain male guinea pigs (300 to 350 grams body weight) are killed and 1.0 to 1.5 cm of ileus is immediately excised from ileocecal parts and is suspended in 10 ml of Tyrode solution (95% O2 -5% CO2 saturation) containing 10^-7 g/ml of atropine and 10^-6 g/ml of pyrilamine. SRS-A (20 units) (the amount of SRS-A showing the same shrinkage as 5 ng of histamine is defined as one unit) prepared by using sensitized guinea pig lung is given to cause shrinkage there. Then antagonistic action of test compounds treated five minutes ago against the shrinkage is measured and recorded via isotonic transducer. [formula] in which A' is a height of shrinkage of SRS-A + test compound and A is that of SRS-A.

[1] = system: passive cutaneous anaphylaxis (PCA); experiment: Passive cutaneous anaphylaxis assay (PCA) in rats; type: in vivo, rat (Wister strain); conditions: oral 10 mg/kg, one hour before antigen; for inhibition in vivo at 10 mg/kg: Rattus norvegicus, po, 1 h, read-out: PCA Inhibition Ratio %
Procedure: as §1
(i) Antiserum abundant in homocytotropic antibody is prepared by the same method as Tada and Okumura did (cf. Journal of Immunology, volume 106, page 1002, […]). Thus, one mg (calculated as an amount of protein) of DNP-As (2,4-dinitrophenyl-coupled ascaris extract) prepared by methods of Strejan and Campbell (Journal of Immunology, volume 98, page 893, 1971) and of Eisen (Journal of American Chemical Society, volume 85, page 4593, 1953) and […] pertussis vaccine are administered to each paw of Wister strain rats (180 to 200 grams body weights) by dividing the dose by four. Five days later, 0.5 mg of DNP-As is adminstered into muscle of back. Eight days later from the initial immunization, blood is taken from descending aorta under anesthetizing with ether, the resulting serum is stored at -80° C. and is melted before use.
(ii) Effect of tested compounds is investigated as follows:
Anti-serum obtained by the method (i) is diluted with physiological saline solution double by double successively and 0.05 ml of each diluted solution is administered into back of Wister strain rats (140 to 160 grams body weight) subcutaneously. After 72 hours, a solution of 2 mg (calculated as protein) of DNP-As and 2.5 mg of Evand Blue dissolved in 1 ml of physiological saline solution is administered intravenously at a dose of 5 ml/kg. After thirty minutes from antigen solution administration, the animals are killed and diameters of blue spots appeared at the place where antiserum is administered are measured. The PCA test is conducted by the same method as already described using a diluted solutions of antiserum which always show 10 mm or more of spot diameters and the effect of the test compounds is judged. Thus, antiserum diluted solutions are administered to two places in back. Test compounds are administered orally at the dose of 10 mg/kg one hour before administration of antigen solution. From the skin of reacted parts of killed animals, leaked or emitted dyestuff is extracted [cf. Baeck and Steinetz: J. Pharmacol. Exp. Ther., Vol. 131, page 400 (1961)] and the amount of the dyestuff is measured. The inhibition ratio is calculated by the following expression: [formula] in which R' is an amount of dyestuff in the group treated with the test compounds and A is that in the control group.

Structure (SMILES)	Lethal Ratio (male mice)	SRS-A Inhibition Ratio % 10^-6 M (SRS-A)	SRS-A Inhibition Ratio % 10^-7 M (SRS-A)	inhibition in vivo at 10 mg/kg [1]	PCA Inhibition Ratio % ([1]; 10 mg/kg)	PCA Inhibition Ratio % [1]
CCNC(=O)c1cccc2c(=O)c(C)c(-c3ccccc3OC)oc12 [Example 13, 2'-methoxy-3-methylflavone-8-carboxylic acid acid N-ethylamide]	1/4	45.2%	37.4%	23%		
CCOc1ccccc1-c1oc2c(C(=O)N(CC)CC)cccc2c(=O)c1C [Example 18, 2'-ethoxy-3-methylflavone-8-carboxylic acid N,N-diethylamide]	0/4	57.1%	32.1%	27.4%		
Cc1c(-c2ccc(Cl)cc2)oc2c(C(=O)OCCO)cccc2c1=O [Example 74, beta-hydroxyethyl 4'-chloro-3-methylflavone-8-carboxylate]	0/4	52.0%	18.7%	17.3%		
CCCCCCCCc1ccc(-c2oc3c(C(=O)O)cccc3c(=O)c2C)cc1 [Example 62, 3-methyl-4'-n-octylflavone-8-carboxylicacid]	0/4	83.3%	31.0%	16.3%		
CCCCCc1ccc(-c2oc3c(C(=O)OCC)cccc3c(=O)c2C)cc1 [Example 59, ethyl 3-methyl-4'-n-pentylflavone-8-carboxylate]		38.1%	9.8%	19.4%		
CCN(CC)C(=O)c1cccc2c(=O)c(C)c(-c3ccc(Cl)cc3Cl)oc12 [Example 81, 2',4'-dichloro-3-methylflavone-8-carboxylic acid N,N-diethylamide]		57.1%	9.8%	20.4%		
Cc1c(-c2cc(Cl)ccc2Cl)oc2c(C(=O)O)cccc2c1=O [Example 76, 2',5'-dichloro-3-methylflavone-8-carboxylic acid]		65.2%	40.0%	13.2%		
CCOC(=O)c1cccc2c(=O)c(C)c(-c3ccccc3C)oc12 [Example 34, 2',3-dimethylflavone-8-carboxylic acid ethyl ester]		71.4%	47.6%	19.5%		
CCOC(=O)c1cccc2c(=O)c(C)c(-c3ccc(C(C)(C)C)cc3)oc12 [Example 56, ethyl 4'-tertiary butyl-3-methylflavone-8-carboxylate]		44.9%	19.0%	20.2%		
CCCCCc1ccc(-c2oc3c(C(=O)O)cccc3c(=O)c2C)cc1 [Example 61]		40.7%	9.4%		22.7%	
CCN(CC)C(=O)c1cccc2c(=O)c(C)c(-c3ccccc3Cl)oc12 [Example 68]		55.3%	9.8%	21.1%		
CCOC(=O)c1cccc2c(=O)c(C)c(-c3ccccc3OCC)oc12 [Example 17, ethyl 2'-ethoxy-3-methylflavone-8-carboxylate]		72.5%	50.0%	21.1%		
CCN(CC)C(=O)c1cccc2c(=O)c(C)c(-c3cc(Cl)ccc3Cl)oc12 [Example 78, 2',5'-dichloro-3-methylflavone-8-carboxylic acid N,N-diethylamide]		79.3%	5.6%	26.3%		
CCN(CC)C(=O)c1cccc2c(=O)c(C)c(-c3ccc(OC)c(OC)c3OC)oc12 [Example 30, 2',3',4'-trimethoxy-3-methylflavone-8-carboxylic acid N,N-diethylamide]		31.0%	18.0%	16.3%		
CCNC(=O)c1cccc2c(=O)c(C)c(-c3ccccc3OCC)oc12 [Example 19, 2'-ethoxy-3-methylflavone-8-carboxylic acid N-ethylamide]		50.0%	30.0%	16%		
Cc1ccc(-c2oc3c(C(=O)O)cccc3c(=O)c2C)c(C)c1 [Example 39, 2',3,4'-trimethylflavone-8-carboxylic acid]		5.3%	3.2%	37%		
CCN(CC)C(=O)c1cccc2c(=O)c(C)c(-c3ccccc3OC)oc12 [Example 12, 2'-methoxy-3-methylflavone-8-carboxylic acid N,N-diethylamide]		52.4%	8.3%	19.2%		
CCOC(=O)c1cccc2c(=O)c(C)c(-c3ccccc3CC)oc12 [Example 37, ethyl 2'-ethyl-3-methylflavone-8-carboxylate]		100%	25.0%	20.5%		
CCN(CC)C(=O)c1cccc2c(=O)c(C)c(-c3ccc(C)cc3C)oc12 [Example 41, 2',3,4'-trimethylflavone-8-carboxylic acid N,N-diethylamide]		54.1%	23.4%	31.4%		
CCOC(=O)c1cccc2c(=O)c(C)c(-c3cc(Cl)ccc3Cl)oc12 [Example 77, ethyl 2',5'-dichloro-3-methylflavone-8-carboxylate]		67.4%	6.9%	16.3%		
CCNC(=O)c1cccc2c(=O)c(C)c(-c3ccc(OC)cc3)oc12 [Example 15, 4'-methoxy-3-methylflavoen-8-carboxylic acid N-ethylamide]		41.9%	30.3%	19%		
CCOC(=O)c1cccc2c(=O)c(C)c(-c3ccccc3OC(C)C)oc12 [Example 21, ethyl 2'-isopropoxy-3-methylflavone-8-carboxylate]		31.0%	19.8%	17.8%		
CCOC(=O)c1cccc2c(=O)c(C)c(-c3ccc(Cl)cc3)oc12 [Example 71, ethyl 4'-chloro-3-methylflavone-8-carboxylate]		10.3%	6.0%	36.9%		
CCOC(=O)c1cccc2c(=O)c(C)c(-c3ccccc3OC)oc12 [Example 11, ethyl 2'-methoxy-3-methylflavone-8-carboxylate]	0/4	100%	35.1%	16.3%		
CCOC(=O)c1cccc2c(=O)c(C)c(-c3ccc(OC)c(OC)c3OC)oc12 [Example 31, ethyl 2',3',4'-trimethoxy-3-methylflaveone-8-carboxylate]		63.0%	20.4%			20.2%
